# Earlier results in US20040009207A1, “Medicinal beverage containing molecular oxygen” (priority 2000, published 2004).
# Where two headings read alike, the source gives them in different places.
smiles,measurement,setting,value
"O=O [O2, molecular oxygen]",solubility of O2 in one litre water,0° C.,0.0491 L
same,solubility of O2 in one litre water,50° C.,0.0209 L
